Read-outs that look alike come from different tables or passages of the source.
Legend:
p38 MAPK/ATF2 = molecular target: T1, p38 MAPK/ATF2 (Homo sapiens, UniProt Q16539); assay: In vitro activity assay of p38 MAPK/ATF2 (HTRF); format: biochemical; conditions: p38α, Human ATF2 Protein, ATP; 35 min at 20° C.
T1 construct: purchased Carna Biosciences (p38α); Sino Biological (ATF2) 04-152; 11599-H20B
Experimental: The inhibitory effect of the compound on p38a-catalyzed ATF2 was evaluated by the HTRF method. The test compound was dissolved in DMSO to obtain a 10 mM stock solution and stored at −20° C. for future use. The initial concentration of the compound was 10 μM, with 0.25% DMSO, 5-fold serial dilution, 8 concentrations, and duplicate wells. The reaction buffer, consisting of 40 mM Tris pH 7.5, 20 mM MgCl2, 0.1 mg/mL BSA, and 50 μM DTT, was used to prepare 3.5×p38α (MAPK14, Carna Biosciences, 04-152) protein working solution, 3.5×Human ATF2 Protein (Sino Biological, 11599-H20B) working solution, and 3.5×ATP working solution. The reaction was terminated with 10 mM EDTA. The final 14 μL reaction system was performed in a 96-well plate (cisbio, 66PL96025), containing 0.29 ng/μL p38a, […] Human ATF2 Protein, and 25 µM ATP. After reacting at 20° C. for 35 min, the pre-prepared antibody solution (cibio, 63ADK015PEG, Phospho-ATF2 Eu Cryptate antibody, Phospho-ATF2 d2 antibody, diluted 40-fold with Detection buffer) was added to each well and incubated overnight at room temperature. The samples were then measured using a microplate reader (HTRF compatible reader). The concentration-effect curve was fitted using GraphPad Prism 8 software, and the compound concentration resulting in 50% inhibition, IC50, was calculated.

p38 MAPK/MK2 = molecular target: T2, p38 MAPK/MK2 (Homo sapiens, UniProt Q16539); assay: In vitro activity assay of p38 MAPK/MK2 (Z-LYTE kinase assay kit); format: biochemical; conditions: active p38α, inactive MK2, Ser/Thr 4; 1-hour reaction at 20° C.
T2 construct: purchased Carna (p38α); Abcam (MK2) 04-152; 79910
T2 sequence (Q16539 whole entry): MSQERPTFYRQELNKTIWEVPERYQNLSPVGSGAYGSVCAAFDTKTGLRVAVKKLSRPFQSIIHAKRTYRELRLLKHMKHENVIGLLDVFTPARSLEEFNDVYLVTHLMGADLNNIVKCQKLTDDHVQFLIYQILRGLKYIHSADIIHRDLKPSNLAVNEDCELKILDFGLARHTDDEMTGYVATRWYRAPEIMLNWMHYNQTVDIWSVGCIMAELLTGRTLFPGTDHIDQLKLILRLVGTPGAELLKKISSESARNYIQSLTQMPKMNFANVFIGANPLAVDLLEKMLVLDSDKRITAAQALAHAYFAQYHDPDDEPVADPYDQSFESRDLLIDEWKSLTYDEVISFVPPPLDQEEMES
T2 sequence (P49137 whole entry partner): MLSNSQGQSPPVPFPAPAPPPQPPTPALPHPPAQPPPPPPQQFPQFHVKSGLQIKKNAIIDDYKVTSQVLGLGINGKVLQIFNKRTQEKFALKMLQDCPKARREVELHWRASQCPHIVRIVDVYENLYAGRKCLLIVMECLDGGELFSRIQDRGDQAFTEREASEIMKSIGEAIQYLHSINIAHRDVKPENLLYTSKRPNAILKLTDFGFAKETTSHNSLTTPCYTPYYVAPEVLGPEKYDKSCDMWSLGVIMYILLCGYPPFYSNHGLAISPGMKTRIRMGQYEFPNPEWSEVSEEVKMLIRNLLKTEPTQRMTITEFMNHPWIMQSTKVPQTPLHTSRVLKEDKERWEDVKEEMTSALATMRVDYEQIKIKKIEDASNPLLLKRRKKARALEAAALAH
Experimental: (§1) The inhibitory effect of the compound on p38 MAPK/MK2 was evaluated using the Z-LYTE kinase assay kit (Thermo, PV3177). The test compound was dissolved in DMSO to obtain a 10 mM stock solution and stored at −20° C. for future use. The initial concentration of the compound was […], with 1% DMSO, 5-fold serial dilution, 8 concentrations, and duplicate wells. […] After a 1-hour reaction at 20° C., Development Reagent A diluted 2048-fold was added to each well, followed by incubation at room temperature for 1 hour. The reaction was terminated by adding 5 μL of stop buffer, and the plate was read using a microplate reader (Ex. 400 nm, Em. 445 nm; Ex. 400 nm, Em. 520 nm). The concentration-effect curve was fitted using GraphPad Prism 8 software, and the compound concentration resulting in 50% inhibition, IC50, was calculated.

p38 MAPK/MK5 = molecular target: T3, p38 MAPK/MK5 (Homo sapiens, UniProt Q16539); assay: In vitro activity assay of p38 MAPK/MK5 (Z-LYTE kinase assay kit); format: biochemical; conditions: active p38α, inactive MK5, Ser/Thr 4; 4-hour reaction at 20° C.
T3 construct: purchased Carna (p38α); Abcam (MK5) 04-152; 217826
T3 sequence (Q16539 whole entry): as the sequence (Q16539 whole entry) above
Experimental: as §1, with “MAPK/MK5” for “MAPK/MK2”, “4-hour” for “1-hour”, “µL” for “μL”

[1] = test system: TNF-α in human PBMC cells; assay: In vitro TNF-α activity assay in human PBMC cell supernatant (LPS, ELISA); format: cell-based; conditions: Homo sapiens, PBMC, 24 h, LPS 100 ng/mL, read-out: p38 MAPK/TNF-α IC50
Experimental: The inhibitory effect of the compound on TNF-α in the supernatant of human PBMC cells was evaluated using an ELISA detection kit (Beyotime, PI518). The test compound was dissolved in DMSO to obtain a 10 mM stock solution and stored at −20° C. for future use. The initial concentration of the compound was […], followed by 5-fold serial dilution to obtain 6 concentrations. Cells were plated in duplicate, and ELISA was performed in single wells. The final concentration of DMSO was 0.4%. Alternatively, the initial concentration of the compound, dilution factor, number of concentration gradients, and replicates could be adjusted based on the specific screening conditions.
Fresh human peripheral blood mononuclear cells (PBMCs) (Sailybio) were seeded at a density of 2×10^5 cells per well in a 96-well plate (Corning, 3599), with each well containing 100 μL of RPMI-1640 (Gibco #A1049101)+10% FBS (Gibco, 10099141C), and incubated overnight at 37° C. under 5% CO2. Test compounds were added to the 96-well culture plate at a volume of 25 μL per well. After 1 hour, 5 μL of LPS was added to achieve a final concentration of 100 ng/mL. No LPS and compound were added to the negative control wells, and no compound was added to the positive control wells. The mixture was further incubated for 24 hours at 37° C. under 5% CO2. Subsequently, the cell culture supernatant was collected by centrifugation at 500 rcf for 8 minutes. The concentration of TNF-α was measured according to the operation manual of the ELISA kit. The concentration-effect curve was fitted using GraphPad Prism 8 software, and the compound concentration resulting in 50% inhibition, IC50, was calculated.

[2] = Pharmacokinetic evaluation in mice; format: in vivo; conditions: mouse, plasma; for AUC(0-t): read-out: Area under curve AUC0-24 h; for clearance: read-out: Clearance CL (converted); for half-life: read-out: Half-life T1/2 (converted); for C0: read-out: Initial concentration C0; for Vd: read-out: Volume of distribution Vd; for bioavailability: read-out: Bioavailability F %; for Cmax: read-out: Maximum concentration Cmax
Experimental: The compound was weighed and dissolved in a mixed solvent of DMAC: Solutol: PBS (1:1:8. After intravenous/gastric administration to mice, whole blood ([…]) was collected at 0.083, 0.25, 0.5, 1, 2, 4, 7, and 24 hours. The samples were anticoagulated with EDTA-K2, immediately centrifuged at 4000 rpm for 5 minutes at 4° C., and the supernatant was frozen in a −80° C. refrigerator. Plasma sample processing: The samples were precipitated with an internal standard-containing CH3CN precipitant, followed by centrifugation at 12700 rpm for 10 min. The supernatant was collected and analyzed by LC-MS/MS (AB Triple Quard 5500) to obtain the plasma drug concentration. The parameters were calculated using a non-compartmental model in Winnolin version 8.1.

[3] = In vitro liver microsome stability, human; format: in vitro ADME; conditions: liver microsomes, 0.5 mg/mL microsomes, 1 μM compound, NADPH, 37° C., read-out: Human liver microsomes Half-life T1/2
Experimental: (§2) The reference compound used in this experiment was Ketanserin, and the final concentration of microsomes in the experimental system was 0.5 mg/mL. The PBS buffer was a 50 mM K2HPO4 buffer. The concentration of the test compound was 1 μM. The microsomes were added to PBS, and the control/test compounds were respectively added to the corresponding reaction systems, mixed thoroughly, and pre-incubated in a 37° C. water bath for 5 minutes. The reaction was initiated by adding 20 mM NADPH solution under 37° C. water bath conditions (for the No NADPH samples, an equal volume of PBS solution was used as a substitute for the 20 mM NADPH solution). At the reaction time points of 0 min, 10 min, 30 mun, 60 min, and 90 min, 30 μL of reaction samples were taken from each reaction system (for the No NADPH samples, sampling was performed at 0 min and 90 min), and the reaction was immediately terminated by adding 300 μL of the internal standard acetonitrile solution. After centrifugation at 4000 rpm, the supernatant was taken and mixed thoroughly with an equal volume of pure water. The samples at each time point were analyzed by LC-MS/MS (AB Triple Quard 5500) to determine the compound content, and the T1/2 was calculated.

[4] = In vitro liver microsome stability, mouse; format: in vitro ADME; conditions: liver microsomes, 0.5 mg/mL microsomes, 1 μM compound, NADPH, 37° C., read-out: Mouse liver microsomes Half-life T1/2
Experimental: as §2

[5] = In vitro liver microsome stability, rat; format: in vitro ADME; conditions: liver microsomes, 0.5 mg/mL microsomes, 1 μM compound, NADPH, 37° C., read-out: Rat liver microsomes Half-life T1/2
Experimental: as §2

[6] = intravenous injection group 1 mg/kg
[7] = po, intragastric administration group 5 mg/kg

Compound	IC50 (p38 MAPK/ATF2) [nM]	IC50 (p38 MAPK/MK2) [nM]	IC50 (p38 MAPK/MK5) [nM]	IC50 [1] [nM]	AUC(0-t) [2, 6] [ng·h/mL]	clearance [2, 6] [mL/min/kg]	half-life [2, 6] [h]	C0 [2, 6] [ng/mL]	Vd [2, 6] [L/kg]	AUC(0-t) [2, 7] [ng·h/mL]	bioavailability [2, 7] [%]	half-life [2, 7] [h]	Cmax [2, 7] [ng/mL]	half-life at 1 μM [3] [h]	half-life at 1 μM [4] [h]	half-life at 1 μM [5] [h]
Cc1cnc(-c2cccc(C(=O)N(C)C)c2)c(F)c1-n1c(C)cc(OCc2ncc(F)cc2F)c(Cl)c1=O (single isomer, unassigned) [Compound 32-P1]	3650	0.51	1650	3.21	842	21.1	0.35	1790	0.49	2350	57.9	1.54	1610	–	–	–
Cc1cnc(-c2ccc(F)c([C@@](C)(O)CO)c2F)cc1-n1c(C)cc(OCc2ncc(F)cc2F)c(Cl)c1=O (single isomer, unassigned) [Compound 65-P4]	4600	0.59	> 20000	4.5	–	–	–	–	–	–	–	–	–	> 4.66	> 4.66	> 4.66
Cc1cnc(-c2cccc(C(=O)O)c2)cc1-n1c(C)cc(OCc2ncc(F)cc2F)c(Cl)c1=O [Compound 1]	> 20000	58.6	6080	–	–	–	–	–	–	–	–	–	–	> 4.66	> 4.66	> 4.66
CNC(=O)c1cccc(-c2cc(-n3c(C)cc(OCc4ncc(F)cc4F)c(Cl)c3=O)c(C)cn2)c1 [Compound 2]	10300	62.4	3050	89	–	–	–	–	–	–	–	–	–	4.14	3.96	4.17
Cc1cnc(-c2cccc(C(N)=O)c2)cc1-n1c(C)cc(OCc2ncc(F)cc2F)c(Cl)c1=O [Compound 4]	> 20000	50.5	6590	96.7	–	–	–	–	–	–	–	–	–	> 4.66	2.93	> 4.66
Cc1cnc(-c2cccc(C(=O)O)c2)c(F)c1-n1c(C)cc(OCc2ncc(F)cc2F)c(Cl)c1=O [Compound 29-P1]	1150	4.86	–	–	1390	10.4	2.57	1450	1.83	6490	80.6	3.37	1380	> 4.66	> 4.66	> 4.66
Cc1cnc(-c2cccc([C@@](C)(O)CO)c2F)cc1-n1c(C)cc(OCc2ncc(F)cc2F)c(Cl)c1=O [Compound 35-P1]	–	1.44	4670	1.9	–	–	–	–	–	–	–	–	–	> 4.66	> 4.66	> 4.66

Reference: patent US20260217652A1, “PHENYL-SUBSTITUTED HETEROARYL COMPOUND AND PHARMACEUTICAL COMPOSITION COMPRISING SAME, PREPARATION METHOD THEREFOR AND USE THEREOF” (SHANGHAI MEIYUE BIOTECH DEVELOPMENT CO., LTD., priority 2023, published 2026)
